In US20240059685A1, “PIEZO1 AGONISTS FOR THE PROMOTION OF BONE FORMATION” (BIOVENTURES, LLC, priority 2019, published 2024):
“Also recorded” adds a separate entry of the source.

Tests used:
Piezo1 [1] = target: T1, Piezo1 (Mus musculus, UniProt E2JF22); experiment: Intracellular calcium concentration (Fluo-8) in control or Piezo1 knock-down MLO-Y4 cells; type: cell-based, murine; conditions: for calcium influx / increase of intracellular calcium in Piezo1 knock-down cells: Piezo1 knock-down (sh-Piezo1) MLO-Y4 cells
T1 construct: To identify Piezo1 stimulators, we treated MLO-Y4 cells with compounds; endogenous in cells; host or cells: MLO-Y4 (murine osteocyte-like cell line); control sh-Luc cells, with sh-Piezo1 knock-down cells as the specificity control
T1 sequence (E2JF22 whole entry): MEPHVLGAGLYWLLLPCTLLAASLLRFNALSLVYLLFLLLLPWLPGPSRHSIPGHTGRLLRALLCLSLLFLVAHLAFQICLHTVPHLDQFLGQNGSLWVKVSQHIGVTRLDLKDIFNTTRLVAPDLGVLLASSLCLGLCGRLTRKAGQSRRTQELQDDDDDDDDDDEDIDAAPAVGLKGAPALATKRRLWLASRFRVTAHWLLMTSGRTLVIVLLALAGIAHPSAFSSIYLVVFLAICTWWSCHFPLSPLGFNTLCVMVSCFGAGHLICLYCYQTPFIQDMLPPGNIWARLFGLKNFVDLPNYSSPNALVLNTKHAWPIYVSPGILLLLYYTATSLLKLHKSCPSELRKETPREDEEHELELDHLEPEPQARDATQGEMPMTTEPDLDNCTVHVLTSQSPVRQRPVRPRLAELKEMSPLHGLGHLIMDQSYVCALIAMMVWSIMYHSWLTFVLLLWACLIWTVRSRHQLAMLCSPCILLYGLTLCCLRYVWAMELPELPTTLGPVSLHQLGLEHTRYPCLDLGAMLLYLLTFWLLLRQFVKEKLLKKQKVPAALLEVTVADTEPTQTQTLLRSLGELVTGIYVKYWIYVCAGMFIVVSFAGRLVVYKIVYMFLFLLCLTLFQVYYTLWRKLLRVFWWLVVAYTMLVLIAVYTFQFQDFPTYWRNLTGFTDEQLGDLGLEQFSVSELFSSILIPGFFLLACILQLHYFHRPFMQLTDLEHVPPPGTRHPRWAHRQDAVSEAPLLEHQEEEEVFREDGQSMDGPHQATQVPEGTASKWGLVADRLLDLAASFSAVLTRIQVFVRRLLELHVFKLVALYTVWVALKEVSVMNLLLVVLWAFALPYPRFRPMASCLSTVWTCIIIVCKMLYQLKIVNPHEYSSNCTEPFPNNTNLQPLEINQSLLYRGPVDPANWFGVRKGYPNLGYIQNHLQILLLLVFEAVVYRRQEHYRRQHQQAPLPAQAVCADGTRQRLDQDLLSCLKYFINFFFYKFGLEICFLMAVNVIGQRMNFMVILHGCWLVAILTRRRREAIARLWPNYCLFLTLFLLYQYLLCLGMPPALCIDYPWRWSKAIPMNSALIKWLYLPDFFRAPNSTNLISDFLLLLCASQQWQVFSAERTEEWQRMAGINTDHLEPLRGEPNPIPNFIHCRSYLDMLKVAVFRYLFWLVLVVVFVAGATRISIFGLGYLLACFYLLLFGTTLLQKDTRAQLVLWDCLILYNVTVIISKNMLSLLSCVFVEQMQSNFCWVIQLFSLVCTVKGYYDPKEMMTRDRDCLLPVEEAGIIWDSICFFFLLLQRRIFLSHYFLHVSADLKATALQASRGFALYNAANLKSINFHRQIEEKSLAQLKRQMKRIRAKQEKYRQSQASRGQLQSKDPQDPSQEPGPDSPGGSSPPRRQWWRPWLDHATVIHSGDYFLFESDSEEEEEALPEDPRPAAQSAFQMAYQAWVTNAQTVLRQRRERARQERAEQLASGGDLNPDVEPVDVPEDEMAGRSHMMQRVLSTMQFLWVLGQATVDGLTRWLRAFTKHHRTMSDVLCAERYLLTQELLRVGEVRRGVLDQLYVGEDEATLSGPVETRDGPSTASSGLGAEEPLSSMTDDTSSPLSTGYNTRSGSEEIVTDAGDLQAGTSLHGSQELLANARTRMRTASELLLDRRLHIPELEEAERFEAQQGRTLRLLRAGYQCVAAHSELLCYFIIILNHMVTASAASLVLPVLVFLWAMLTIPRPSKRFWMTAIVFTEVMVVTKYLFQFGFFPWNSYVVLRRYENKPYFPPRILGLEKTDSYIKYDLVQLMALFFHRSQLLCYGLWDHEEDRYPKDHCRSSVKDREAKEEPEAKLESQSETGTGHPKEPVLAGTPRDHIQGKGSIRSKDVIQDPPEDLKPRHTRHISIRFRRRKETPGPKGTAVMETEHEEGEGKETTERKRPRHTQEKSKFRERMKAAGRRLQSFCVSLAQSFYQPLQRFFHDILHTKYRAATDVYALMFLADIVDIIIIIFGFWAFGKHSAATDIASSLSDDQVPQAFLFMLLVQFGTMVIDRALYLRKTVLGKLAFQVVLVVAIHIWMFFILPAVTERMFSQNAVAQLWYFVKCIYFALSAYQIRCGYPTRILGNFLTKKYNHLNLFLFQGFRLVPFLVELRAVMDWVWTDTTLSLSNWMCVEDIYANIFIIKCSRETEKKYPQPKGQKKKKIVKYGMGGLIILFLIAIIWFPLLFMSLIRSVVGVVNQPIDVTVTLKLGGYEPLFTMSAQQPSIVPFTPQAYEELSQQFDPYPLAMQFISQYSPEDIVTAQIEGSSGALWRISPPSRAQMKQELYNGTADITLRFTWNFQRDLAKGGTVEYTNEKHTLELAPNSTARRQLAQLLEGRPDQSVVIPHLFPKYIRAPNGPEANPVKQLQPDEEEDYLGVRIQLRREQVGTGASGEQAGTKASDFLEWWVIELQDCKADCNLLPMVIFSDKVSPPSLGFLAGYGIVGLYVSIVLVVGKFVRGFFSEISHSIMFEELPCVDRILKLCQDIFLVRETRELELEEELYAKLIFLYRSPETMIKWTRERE
Method: Calcium concentration measurement. For intracellular calcium concentration measurement under fluid flow condition, 1×10^5 MLO-Y4 cells were seeded in a μ-Slide I Luer (0.4 mm) fluid chamber slide (MIDI, Germany) overnight. One hour before initiating fluid flow, the culture medium was removed and 100 μl Hank's Buffer with Hepes (HHBS) containing 4μM Fluo-8 (Abcam, Cambridge, MA) was added to the culture, as described by the manufacturer. The cells were then cultured at 37° C. for 30 minutes. After additional incubation at room temperature for 30 minutes, the chamber slide was placed under a confocal microscope in order to record the intensity of fluorescence of MLO-Y4 cells. Fluorescence was recorded for 3 minutes before starting fluid flow using HHBS and then recorded for another 10 minutes. The increase of intracellular concentration was calculated by subtracting the initial mean fluorescence. For measuring intracellular calcium concentration in cells with Yoda1 treatment, we cultured 4,000 MLO-Y4 cells per well in a 96-well-plate. We preloaded the cells with Fluo-8 as described by the manufacturer and read the intensity of the fluorescence using a Victor X3 multi-label plate reader (Perkin Elmer, Waltham, MA) immediately after the treatment. We measured the fluorescence for 5 minutes at an interval of 20 seconds. The percentage of increase in intracellular calcium concentration was calculated as (Fx-F0)/F0.
To identify Piezo1 stimulators, we treated MLO-Y4 cells with compounds Yoda1, YW-3-159, W-3-163, W-3-168-1, W-3-168-2, W-3-170, W-3-173-1, W-3-173-2, and YW-3-174. Gene expression of Wnt1, Ptgs2, and Tnfrsf11b was measured to determine the activation of Piezo1. In addition, intracellular calcium concentration was measured to determine the activity of Piezo1 channel. […] Yoda1 was used as a positive control in all experiments.

Piezo1 [2] = target: T1, Piezo1; experiment: qPCR gene expression of Wnt1, Ptgs2 and Tnfrsf11b in MLO-Y4 cells; type: cell-based, murine; conditions: 10 μM, 2 hours
Method: Cell cultures. MLO-Y4 cells were cultured in α-MEM supplemented with 5% FBS, 5% BCS, and 1% penicillin/streptomycin/glutamine. Fifteen dynes/cm^2 oscillatory fluid shear stress was applied on MLO-Y4 cells at 1 Hz for 2 hours using an IBDI pump system (IBIDI, German). For Yoda1 treatment, cells were cultured in the presence of 10 μM Yoda1 (Sigma, St. Louis, MO) or DMSO for 2 hours. Immediately after the treatments, we isolated RNA from cells using RNeasy mini kit (Qiagen, German) for qPCR or RNA-seq analysis. To silence Piezo1, we generated Piezo1 shRNA expression plasmid using the following oligonucleotides in the pLKO.1-TRC cloning vector (Addgene Plasmid #10878, a gift from David Root): forward oligo: 5′-CCGGTC-[…]-3′ (SEQ ID NO: 1); reverse oligo: 5′-[…]-CGA-3′ (SEQ ID NO: 2) (Zhang et al., 2017). Yap1 shRNA (TRCN0000238432) and Taz shRNA (TRCN0000095951) were purchased from Sigma (St. Louis, MO). A shRNA against firefly luciferase was used as a control (Sigma, St. Louis, MO). For virus production, HEK293T cells were cultured in a 6-well culture plate and co-transfected with a total 3 μg of lentiviral shRNA vector, pMD2G (Addgene plasmid #12259, a gift from Didier Trono), and psPAX2 (Addgene plasmid #12260, a gift from Didier Trono) at the ratio of 2:0.9:0.4 using TransIT-LT1 transfection reagent (Mirus, Madison, WI). Culture media was changed 12 hours after transfection and viral supernatants were collected 48 hours after media change. Viral supernatants were filtered through a 0.45 μm filter and used immediately to transduce cells cultured in a 10 cm dish. Cells were then subjected to selection with G418 (100 μg/ml) or puromycin (25 μg/ml) for 5 days before treatment. To overexpress Piezo1 in MLO-Y4 cells, we transfected mPiezo1-IRES-eGFP (Addgene plasmid #80925, a gift from Ardem Patapoutian) into MLO-Y4 cells using TransIT-LT1 transfection reagent (Mirus, Madison, WI) and then treated these cells with 15 dynes/cm^2 oscillatory fluid shear stress at 1 Hz for 2 hours. Plasmids for expression of Cas9 and sgRNAs for knocking out Piezo1 in UAMS-32 cells were prepared by inserting oligonucleotides encoding the desired sgRNA sequence into the pX458 vector using the protocol recommended by the Zhang laboratory (Cong et al., 2013). Plasmids expressing Cas9 and Piezo1 sgRNAs were transfected into UAMS-32 cells using TransIT-LT1 transfection reagent (Mirus, Madison, WI). Cells were sorted into 96-well plates for single cell cloning 48 hours after transfection. Single cell colonies were then screened for homozygous deletion using the following primers: Forward: 5′-[…]-3′ (SEQ ID NO: 5), Reverse: 5′-[…]-3′ (SEQ ID NO: 6). All homozygous mutant cell colonies were then pooled together for further analysis. Cas9 transfected cells were used as a control. All in vitro cell culture experiments were performed three times with three technical replicates.
Quantitative PCR. Organs and whole bones were harvested from animals, removed of soft tissues, and stored immediately in liquid nitrogen. We prepared osteocyte-enriched bone by removing the ends of femurs and tibias and then flushing the bone marrow with PBS. We then scraped the bone surface with a scalpel and froze them in liquid nitrogen for later RNA isolation, or decalcified them for genomic DNA isolation. We isolated total RNA using TRIzol (Life technologies, NY), according to the manufacturer's instructions and prepared cDNA using High Capacity first strand cDNA synthesis kit (Life Technologies). We performed quantitative RT-PCR using the following Taqman assays from Applied Biosystems: Piezo1 (Mm01241549_m1); Piezo2 (Mm01265861_m1); Ptgs2 (Mm00478374_m1); Cyr61 (Mm00487498_m1); Wnt1 (Mm01300-555_g1); Yap1 (Mm011432-63_m1); Taz (Mm01289583_m1); Tnfsf11 Mm00441906_m1; Tnfrsf11b (Mm00435452_m1); Sost (Mm00470479_m1); and ribosomal protein S2 (Mrps2) (Mm00475529_m1). We calculated relative mRNA amounts using the ΔCt method (Livak and Schmittgen, 2001). […]

[3] = Yap1/Taz knock-down MLO-Y4 cells

Row | calcium influx compared with Yoda1 (Piezo1 [1]; MLO-Y4 cells, 10 μM) | intracellular calcium concentration, dose dependence (Piezo1 [1]; MLO-Y4 cells, different doses) | intracellular calcium concentration (Piezo1 [1]; MLO-Y4 cells, 10 μM, vs DMSO) | changes in gene expression (Ptgs2, Wnt1, Tnfrsf11b) after silencing of Piezo1 (Piezo1 [2]; Piezo1 knock-down MLO-Y4 cells) | increase of Ptgs2 after silencing Yap1 and Taz (Piezo1 [2]; [3]) | increase of Tnfrsf11b after silencing Yap1 and Taz (Piezo1 [2]; [3]) | increase of Wnt1 after silencing Yap1 and Taz (Piezo1 [2]; [3]) | Structure (SMILES) | intracellular calcium concentration compared with Yoda1 (Piezo1 [1]; MLO-Y4 cells, at 2 μM, 5 μM, and 10 μM) | calcium influx / increase of intracellular calcium in Piezo1 knock-down cells (Piezo1 [1]; 10 μM) | Ptgs2 expression compared with positive control Yoda1 (Piezo1 [2]; MLO-Y4 cells) | Ptgs2 expression compared with vehicle (Piezo1 [2]; MLO-Y4 cells) | Tnfrsf11b expression compared with vehicle (Piezo1 [2]; MLO-Y4 cells) | Wnt1 expression compared with positive control Yoda1 (Piezo1 [2]; MLO-Y4 cells) | Wnt1 expression compared with vehicle (Piezo1 [2]; MLO-Y4 cells)
1 | much more calcium influx than Yoda1 | dose-dependently |  |  |  |  |  | Fc1ccc(Cl)c(CSc2nnc(-c3cnccn3)s2)c1Cl [YW-3-170] | higher intracellular calcium concentration than Yoda1 | completely blocked; also recorded: loss of their ability to stimulate calcium influx | higher Ptgs2 expression than the positive control | higher Ptgs2 expression | higher Tnfrsf11b expression | higher Wnt1 expression than the positive control | higher Wnt1 expression
2 |  |  | increased | completely prevented | significantly blunted | significantly blunted | significantly blunted | Clc1cccc(Cl)c1CSc1nnc(-c2cnccn2)s1 [Yoda1] |  | completely prevented; also recorded: completely blocked |  | stimulated expression; also recorded: higher Ptgs2 expression | stimulated expression; also recorded: higher Tnfrsf11b expression |  | stimulated expression; also recorded: higher Wnt1 expression
